Where two headings read alike, the source gives them in different places.
Legend:
Experiment in all cases: SelectScreen Z-LYTE kinase activity assay (SI Table 6)
Format in all cases: biochemical
[1] = molecular target: protein kinases of the Z-LYTE panel (Homo sapiens, UniProt Q13464)
Outline: (§1)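 Percent effect values derive from SelectScreen Adapta, Lantha and Z-LYTE assays in which 1938 was present at 1 μM, spanning 133 protein kinases and 7 lipid kinases.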

[2] = molecular target: protein kinases of the Z-LYTE panel (Homo sapiens, UniProt P17948)
Outline: as §1

[3] = molecular target: protein kinases of the Z-LYTE panel (Homo sapiens, UniProt Q96SB4)
Outline: as §1

[4] = molecular target: protein kinases of the Z-LYTE panel (Homo sapiens, UniProt Q15303)
Outline: as §1

[5] = molecular target: protein kinases of the Z-LYTE panel (Homo sapiens, UniProt P49759)
Outline: as §1

[6] = molecular target: T1, protein kinases of the Z-LYTE panel (Homo sapiens, UniProt Q8IW41)
T1 sequence (Q8IW41 1-473): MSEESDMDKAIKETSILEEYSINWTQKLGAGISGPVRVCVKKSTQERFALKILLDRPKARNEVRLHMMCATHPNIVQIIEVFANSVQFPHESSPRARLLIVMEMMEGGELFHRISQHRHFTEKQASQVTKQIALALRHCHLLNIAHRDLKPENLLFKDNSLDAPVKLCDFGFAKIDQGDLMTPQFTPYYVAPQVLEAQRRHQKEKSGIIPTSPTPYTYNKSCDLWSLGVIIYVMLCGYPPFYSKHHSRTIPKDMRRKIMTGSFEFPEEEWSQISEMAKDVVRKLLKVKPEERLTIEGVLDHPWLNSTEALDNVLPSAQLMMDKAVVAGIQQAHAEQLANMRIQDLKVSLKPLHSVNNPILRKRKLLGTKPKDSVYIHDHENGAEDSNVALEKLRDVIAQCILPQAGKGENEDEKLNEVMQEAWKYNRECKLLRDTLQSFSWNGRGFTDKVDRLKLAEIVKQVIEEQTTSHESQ
Outline: as §1

[7] = molecular target: T2, protein kinases of the Z-LYTE panel (Homo sapiens, UniProt Q9UQB9)
T2 sequence (Q9UQB9 1-309): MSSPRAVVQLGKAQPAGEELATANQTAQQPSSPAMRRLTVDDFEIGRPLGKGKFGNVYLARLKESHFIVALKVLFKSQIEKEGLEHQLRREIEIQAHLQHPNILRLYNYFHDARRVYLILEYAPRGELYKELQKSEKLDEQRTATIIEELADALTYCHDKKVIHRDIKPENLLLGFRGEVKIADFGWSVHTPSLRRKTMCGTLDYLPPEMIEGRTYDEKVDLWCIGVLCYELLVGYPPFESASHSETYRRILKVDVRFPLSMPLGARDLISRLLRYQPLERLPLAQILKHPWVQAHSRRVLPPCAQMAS
Outline: as §1

[8] = molecular target: protein kinases of the Z-LYTE panel (Homo sapiens, UniProt P07333)
Outline: as §1

[9] = molecular target: protein kinases of the Z-LYTE panel (Homo sapiens, UniProt P04629)
Outline: as §1

[10] = molecular target: protein kinases of the Z-LYTE panel (Homo sapiens, UniProt P31751)
Outline: as §1

[11] = molecular target: protein kinases of the Z-LYTE panel (Homo sapiens, UniProt P06493)
Outline: as §1

[12] = molecular target: protein kinases of the Z-LYTE panel (Homo sapiens, UniProt O60674)
Outline: as §1

protein kinases of the Z-LYTE panel (Homo sapiens, UniProt P06493), sequence (P06493 whole entry): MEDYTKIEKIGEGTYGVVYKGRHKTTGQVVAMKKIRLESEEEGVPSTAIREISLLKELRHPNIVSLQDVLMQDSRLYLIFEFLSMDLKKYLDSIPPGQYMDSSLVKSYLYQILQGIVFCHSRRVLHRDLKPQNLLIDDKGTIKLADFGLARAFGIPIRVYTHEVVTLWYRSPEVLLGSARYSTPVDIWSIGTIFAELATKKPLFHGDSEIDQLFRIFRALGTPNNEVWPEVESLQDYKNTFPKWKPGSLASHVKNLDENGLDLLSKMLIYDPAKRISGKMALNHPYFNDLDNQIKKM
protein kinases of the Z-LYTE panel (Homo sapiens, UniProt Q15303), sequence (Q15303 26-1308): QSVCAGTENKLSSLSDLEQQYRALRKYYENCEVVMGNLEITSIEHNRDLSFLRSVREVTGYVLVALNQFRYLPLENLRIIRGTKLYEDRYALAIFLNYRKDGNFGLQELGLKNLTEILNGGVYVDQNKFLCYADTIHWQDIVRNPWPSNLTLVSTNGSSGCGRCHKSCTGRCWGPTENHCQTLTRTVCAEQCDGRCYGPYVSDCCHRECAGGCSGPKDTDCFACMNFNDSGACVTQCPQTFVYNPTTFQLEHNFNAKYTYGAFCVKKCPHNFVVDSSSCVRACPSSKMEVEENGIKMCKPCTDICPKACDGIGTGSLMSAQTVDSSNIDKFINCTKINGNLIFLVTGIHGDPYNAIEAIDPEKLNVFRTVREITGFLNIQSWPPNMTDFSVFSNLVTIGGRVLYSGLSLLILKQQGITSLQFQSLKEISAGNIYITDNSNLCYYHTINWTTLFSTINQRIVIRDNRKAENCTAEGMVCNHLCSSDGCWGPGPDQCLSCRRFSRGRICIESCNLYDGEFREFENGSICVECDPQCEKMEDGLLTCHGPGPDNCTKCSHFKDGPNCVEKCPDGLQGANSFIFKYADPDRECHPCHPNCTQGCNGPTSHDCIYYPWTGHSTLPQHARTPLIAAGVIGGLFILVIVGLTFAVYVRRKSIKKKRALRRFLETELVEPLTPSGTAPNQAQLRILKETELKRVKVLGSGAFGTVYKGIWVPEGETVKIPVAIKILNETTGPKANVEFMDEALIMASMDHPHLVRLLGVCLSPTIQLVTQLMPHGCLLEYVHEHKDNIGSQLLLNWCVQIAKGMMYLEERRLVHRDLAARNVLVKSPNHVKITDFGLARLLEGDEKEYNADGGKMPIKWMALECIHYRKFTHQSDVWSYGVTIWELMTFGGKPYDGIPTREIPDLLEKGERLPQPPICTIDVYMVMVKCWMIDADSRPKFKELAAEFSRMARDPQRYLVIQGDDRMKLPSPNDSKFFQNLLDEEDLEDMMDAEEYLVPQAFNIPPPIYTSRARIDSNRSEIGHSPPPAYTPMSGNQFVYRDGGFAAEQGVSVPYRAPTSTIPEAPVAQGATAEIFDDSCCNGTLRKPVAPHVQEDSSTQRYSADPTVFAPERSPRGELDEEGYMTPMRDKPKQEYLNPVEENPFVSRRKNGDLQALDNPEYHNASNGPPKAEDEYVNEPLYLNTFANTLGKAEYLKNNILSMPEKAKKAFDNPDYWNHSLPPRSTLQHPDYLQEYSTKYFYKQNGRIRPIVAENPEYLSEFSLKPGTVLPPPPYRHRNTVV
protein kinases of the Z-LYTE panel (Homo sapiens, UniProt O60674), sequence (O60674 whole entry): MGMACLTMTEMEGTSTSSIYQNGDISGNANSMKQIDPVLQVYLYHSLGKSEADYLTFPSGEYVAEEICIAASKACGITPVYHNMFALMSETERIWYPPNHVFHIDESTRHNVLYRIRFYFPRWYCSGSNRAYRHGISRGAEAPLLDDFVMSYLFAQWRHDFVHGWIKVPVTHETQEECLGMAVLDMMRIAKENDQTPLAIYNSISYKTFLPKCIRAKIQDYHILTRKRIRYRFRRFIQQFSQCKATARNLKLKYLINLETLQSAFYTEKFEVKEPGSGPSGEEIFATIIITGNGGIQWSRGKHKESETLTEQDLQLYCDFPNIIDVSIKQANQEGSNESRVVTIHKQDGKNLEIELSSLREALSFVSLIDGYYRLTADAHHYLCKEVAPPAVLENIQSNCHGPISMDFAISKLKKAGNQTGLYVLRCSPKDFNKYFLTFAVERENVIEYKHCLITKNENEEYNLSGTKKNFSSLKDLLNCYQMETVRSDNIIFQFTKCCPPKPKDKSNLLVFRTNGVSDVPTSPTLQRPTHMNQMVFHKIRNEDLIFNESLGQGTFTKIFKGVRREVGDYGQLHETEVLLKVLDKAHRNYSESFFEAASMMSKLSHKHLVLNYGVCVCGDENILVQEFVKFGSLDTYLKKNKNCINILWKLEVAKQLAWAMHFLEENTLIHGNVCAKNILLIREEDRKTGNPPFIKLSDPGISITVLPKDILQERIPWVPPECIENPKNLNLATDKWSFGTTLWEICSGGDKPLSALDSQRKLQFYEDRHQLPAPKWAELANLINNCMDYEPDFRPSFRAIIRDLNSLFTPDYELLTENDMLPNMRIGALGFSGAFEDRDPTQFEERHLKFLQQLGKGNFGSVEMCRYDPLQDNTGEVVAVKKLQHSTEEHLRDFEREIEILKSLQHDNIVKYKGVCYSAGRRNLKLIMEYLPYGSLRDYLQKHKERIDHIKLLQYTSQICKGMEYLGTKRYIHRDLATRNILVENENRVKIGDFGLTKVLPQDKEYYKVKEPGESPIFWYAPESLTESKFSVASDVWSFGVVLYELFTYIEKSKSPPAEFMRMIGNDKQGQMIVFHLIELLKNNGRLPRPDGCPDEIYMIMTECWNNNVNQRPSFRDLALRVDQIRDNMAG
protein kinases of the Z-LYTE panel (Homo sapiens, UniProt P04629), sequence (P04629 33-796): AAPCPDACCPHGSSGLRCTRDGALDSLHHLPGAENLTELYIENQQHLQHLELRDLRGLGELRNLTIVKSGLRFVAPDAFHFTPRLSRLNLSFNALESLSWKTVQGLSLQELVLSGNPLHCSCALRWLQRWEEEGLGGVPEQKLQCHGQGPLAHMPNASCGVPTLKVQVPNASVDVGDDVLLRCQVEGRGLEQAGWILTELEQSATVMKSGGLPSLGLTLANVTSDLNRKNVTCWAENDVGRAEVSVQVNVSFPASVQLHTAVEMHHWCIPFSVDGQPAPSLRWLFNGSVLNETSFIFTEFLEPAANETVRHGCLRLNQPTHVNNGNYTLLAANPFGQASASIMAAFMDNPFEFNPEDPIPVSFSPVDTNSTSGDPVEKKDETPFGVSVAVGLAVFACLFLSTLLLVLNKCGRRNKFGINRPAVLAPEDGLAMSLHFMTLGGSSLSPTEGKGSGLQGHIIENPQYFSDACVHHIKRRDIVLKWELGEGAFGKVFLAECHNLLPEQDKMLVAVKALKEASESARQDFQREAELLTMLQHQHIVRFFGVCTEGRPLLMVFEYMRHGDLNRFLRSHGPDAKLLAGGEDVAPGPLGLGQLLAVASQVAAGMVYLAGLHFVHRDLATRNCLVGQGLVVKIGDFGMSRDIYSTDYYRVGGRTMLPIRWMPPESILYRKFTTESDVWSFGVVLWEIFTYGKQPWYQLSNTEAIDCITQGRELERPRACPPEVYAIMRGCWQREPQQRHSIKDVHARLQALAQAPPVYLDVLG
protein kinases of the Z-LYTE panel (Homo sapiens, UniProt P07333), sequence (P07333 20-972): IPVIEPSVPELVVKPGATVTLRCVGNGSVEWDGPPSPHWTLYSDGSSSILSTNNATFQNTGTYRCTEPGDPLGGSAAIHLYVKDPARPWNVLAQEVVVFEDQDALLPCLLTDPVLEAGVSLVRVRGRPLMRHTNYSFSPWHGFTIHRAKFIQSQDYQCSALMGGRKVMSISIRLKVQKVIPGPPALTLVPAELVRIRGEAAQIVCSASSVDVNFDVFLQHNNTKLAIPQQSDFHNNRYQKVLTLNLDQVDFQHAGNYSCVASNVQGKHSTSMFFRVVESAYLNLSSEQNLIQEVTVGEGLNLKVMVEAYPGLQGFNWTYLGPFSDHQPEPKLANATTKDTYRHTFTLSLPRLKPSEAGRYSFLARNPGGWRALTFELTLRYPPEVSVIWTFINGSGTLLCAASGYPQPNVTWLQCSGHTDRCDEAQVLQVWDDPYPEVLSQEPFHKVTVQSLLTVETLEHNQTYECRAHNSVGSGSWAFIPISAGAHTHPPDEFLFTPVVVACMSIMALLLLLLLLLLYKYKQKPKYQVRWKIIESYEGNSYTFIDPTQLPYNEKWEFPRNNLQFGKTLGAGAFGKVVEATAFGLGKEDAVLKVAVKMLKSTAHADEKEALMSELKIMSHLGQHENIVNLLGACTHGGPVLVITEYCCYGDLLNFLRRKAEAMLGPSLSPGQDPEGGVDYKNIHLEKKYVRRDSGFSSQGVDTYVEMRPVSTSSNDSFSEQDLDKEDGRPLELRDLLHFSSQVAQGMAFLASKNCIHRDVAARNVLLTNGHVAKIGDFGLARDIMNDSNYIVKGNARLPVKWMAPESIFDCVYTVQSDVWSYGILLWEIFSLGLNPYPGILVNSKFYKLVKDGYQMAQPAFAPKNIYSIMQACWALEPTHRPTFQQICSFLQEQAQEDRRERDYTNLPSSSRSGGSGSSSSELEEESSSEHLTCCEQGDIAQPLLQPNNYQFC
protein kinases of the Z-LYTE panel (Homo sapiens, UniProt P49759), sequence (P49759 whole entry): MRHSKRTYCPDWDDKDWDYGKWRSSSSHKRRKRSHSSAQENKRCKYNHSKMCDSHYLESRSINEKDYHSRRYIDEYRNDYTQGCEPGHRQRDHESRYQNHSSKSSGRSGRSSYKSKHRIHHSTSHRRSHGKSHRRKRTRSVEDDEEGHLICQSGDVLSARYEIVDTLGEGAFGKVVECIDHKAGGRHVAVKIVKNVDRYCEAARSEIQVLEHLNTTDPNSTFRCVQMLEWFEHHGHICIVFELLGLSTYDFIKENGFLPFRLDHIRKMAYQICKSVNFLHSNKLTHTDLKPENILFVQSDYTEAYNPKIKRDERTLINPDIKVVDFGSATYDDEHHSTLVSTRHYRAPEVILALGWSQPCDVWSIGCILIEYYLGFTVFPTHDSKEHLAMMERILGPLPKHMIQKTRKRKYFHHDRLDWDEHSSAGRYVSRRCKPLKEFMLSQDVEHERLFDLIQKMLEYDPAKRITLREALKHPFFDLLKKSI

SMILES: CCN1CCN(c2ccc(Nc3cc(Nc4cccc5c4N(C(C)=O)CC5)ccn3)cc2)CC1 [Compound 1938]
- inhibition at 1 µM ([1]; read-out: % Inhibition Point 1): 0.45%
- inhibition at 1 µM ([1]; read-out: % Inhibition Point 2): 0.0147%
- inhibition at 1 µM ([1]; read-out: % Inhibition mean): 0.233%
- inhibition at 1 µM ([2]; read-out: % Inhibition Point 1): 1.74%
- inhibition at 1 µM ([2]; read-out: % Inhibition Point 2): 1.66%
- inhibition at 1 µM ([2]; read-out: % Inhibition mean): 1.7%
- inhibition at 1 µM ([3]; read-out: % Inhibition Point 1): 1.56%
- inhibition at 1 µM ([3]; read-out: % Inhibition Point 2): 1.35%
- inhibition at 1 µM ([3]; read-out: % Inhibition mean): 1.46%
- inhibition at 1 µM ([4]; read-out: % Inhibition Point 1): 9%
- inhibition at 1 µM ([4]; read-out: % Inhibition Point 2): 9.48%
- inhibition at 1 µM ([4]; read-out: % Inhibition mean): 9%
- inhibition at 1 µM ([5]; read-out: % Inhibition Point 1): 2.18%
- inhibition at 1 µM ([5]; read-out: % Inhibition Point 2): 6%
- inhibition at 1 µM ([5]; read-out: % Inhibition mean): 4%
- inhibition at 1 µM ([6]; read-out: % Inhibition Point 1): 2.18%
- inhibition at 1 µM ([6]; read-out: % Inhibition Point 2): 2.77%
- inhibition at 1 µM ([6]; read-out: % Inhibition mean): 2.48%
- inhibition at 1 µM ([7]; read-out: % Inhibition Point 1): 39%
- inhibition at 1 µM ([7]; read-out: % Inhibition Point 2): 35%
- inhibition at 1 µM ([7]; read-out: % Inhibition mean): 37%
- inhibition at 1 µM ([8]; read-out: % Inhibition Point 1): 15%
- inhibition at 1 µM ([8]; read-out: % Inhibition Point 2): 15%
- inhibition at 1 µM ([8]; read-out: % Inhibition mean): 15%
- inhibition at 1 µM ([9]; read-out: % Inhibition Point 1): 26%
- inhibition at 1 µM ([9]; read-out: % Inhibition Point 2): 20%
- inhibition at 1 µM ([9]; read-out: % Inhibition mean): 23%
- inhibition at 1 µM ([10]; read-out: % Inhibition Point 1): 0.378%
- inhibition at 1 µM ([10]; read-out: % Inhibition Point 2): 0.753%
- inhibition at 1 µM ([10]; read-out: % Inhibition mean): 0.565%
- inhibition at 1 µM ([11]; read-out: % Inhibition Point 1): 5.46%
- inhibition at 1 µM ([11]; read-out: % Inhibition Point 2): 3.74%
- inhibition at 1 µM ([11]; read-out: % Inhibition mean): 4.6%
- inhibition at 1 µM ([12]; read-out: % Inhibition Point 1): 6.6%
- inhibition at 1 µM ([12]; read-out: % Inhibition Point 2): 9%
- inhibition at 1 µM ([12]; read-out: % Inhibition mean): 8%

Reference: publication PMC7614683, “A small molecule PI3Kα activator for cardioprotection and neuroregeneration” (Nature, 2023)
